Assay results published in article PMC3671673, “In Vitro Morphological Assessment of Apoptosis Induced by Antiproliferative Constituents from the Rhizomes of Curcuma zedoaria” (Evidence-based Complementary and Alternative Medicine : eCAM, 2013).
Values after ≈ are worked out from the molar mass of the structure shown. Marks after values point to notes of the source that are not given here.

How the values were obtained:
[1] = tested on: MCF-7 cells; assay: Morphological changes by phase contrast inverted microscope, MCF-7; assay type: cell-based, human; conditions: MCF-7, 48 h, 12.5-50 μg/mL, phase contrast 200x
Procedure: (§1) Observation of morphological changes of apoptotic cells was performed according to the method with slight modifications. Briefly, 5 × 10^5 cells were incubated for 48 hours with or without selected compounds at concentrations of 12.5, 25, 40, and 50 μg/mL in a 60 mm diameter tissue culture dishes. The medium was discarded and cells were washed once with PBS. The morphological changes of the apoptotic cells were observed using phase contrast inverted microscope (Leica DMI 3000B, Germany) at 200x magnifications.

[2] = tested on: Ca Ski cells; assay: Hoechst 33342/PI dual staining, quantification of apoptotic/necrotic cells, Ca Ski; assay type: cell-based, human; conditions: 48 h
Procedure: Briefly, cells were grown on tissue culture dishes and treated with or without tested compounds at concentrations of 12.5, 25, 40, and 50 μg/mL. After 48 hours, the cells were harvested and washed with cold PBS to a density of 5 × 10^5 cells/mL. The cells were suspended in Hoechst 33342 solution (10 μg/mL) and were incubated at 37°C in CO2 for 7 minutes. After incubation with Hoechst 33342, the cells were counter stained with propidium iodide (2.5 μg/mL). The samples were maintained in the dark for 15 minutes. After staining, an aliquot of cell suspension was placed on a glass microscope slides. The slides were observed immediately under inverted fluorescence microscope (DM16000B, Germany) using UV/488 dual excitation and the fluorescence was measured at ~460 nm emission of Hoechst 33342 dye and >575 nm emission of propidium iodide at 630x magnification. At least 200 total target cells were counted and the numbers of each four cellular states were recorded and analyzed using fluorescence microscopy for quantification of apoptosis and necrosis. The experiment was conducted in triplicates. The percentages of apoptotic and necrotic cells were determined according to the following formula [27]: (1) Percentage of Apoptotic Cells (%) =(LA+DA)/ LN+LA+DN+DA×100,Percentage of Necrotic Cells (%) = DN/LN+LA+DN+DA×100, where LN are live target cells with normal nuclei (Hoechst 33342/PI: blue chromatin with organized structure), LA are live cells with apoptotic nuclei (Hoechst 33342/PI: bright blue chromatin that is highly condensed or fragmented), DN are dead cells with normal nuclei (Hoechst 33342/PI: pink chromatin with organized structure), and DA are dead cells with apoptotic nuclei (Hoechst 33342/PI: bright pink chromatin that is, highly condensed or fragmented).

[3] = tested on: cervical carcinoma cell line (Ca Ski); assay: cells; assay type: cell-based; conditions: Homo sapiens, isolated compounds, 72 h, neutral red, mean ± SD of three replicates, read-out: IC50 (μg/mL) Ca Ski
Procedure: (§2) The human cancer cells KB, Ca Ski, MCF-7, HCT-116, A549, and noncancer human cell lines (MRC-5) were purchased from the American Tissue Culture Collection (ATCC, USA). The supplemented RPMI 1640 media and eagle minimum essential medium (EMEM) were purchased from Sigma-Aldrich, USA. The supplements or antibiotics such as foetal bovine serum (FBS), penicillin/streptomycin (P/S) (100 μg/mL), amphotericin B (50 μg/mL), and accutase were purchased from PAA Laboratories, Austria. Sodium pyruvate (11 mg/mL) purchased from Sigma-Aldrich, USA. The cells were cultured in a SHEL LAB water-jacketed CO2 incubator with […] tissue culture flasks (Nunc, Denmark), which was observed routinely under inverted microscope (Leica DMI3000 B, Germany) for any contamination and seeded into 96-well flat bottom microtiter plate (Nunc, Denmark). The extract or pure compounds was dissolved in dimethyl sulfoxide (DMSO, Molecular Biology Grade, >99.9%) from Sigma-Aldrich, USA. Microtiter plate incubator shaker (LT Biomax 500) was used and absorbance was measured at 540 nm using an ELISA microplate reader (EMax microplate reader of Molecular Devices, USA). MCF-7 and Ca Ski were cultured in RPMI 1640 media supplemented with 10% v/v FBS, P/S, and amphotericin B and MRC-5 in EMEM media with 10% v/v FBS, P/S, amphotericin B, and sodium pyruvate. The cells were cultured in tissue culture flask in 5% CO2 incubator kept at 37°C in a humidified atmosphere and observed routinely under inverted microscope from any contaminations. Each fresh medium was replaced every 2 or 3 days until cell confluence was achieved and the cells were detached by using accutase.
(§3) The in vitro cytotoxicity activity was performed using the neutral red cytotoxicity assay based on the initial protocol as described earlier with some modifications. Briefly, cells were detached from the tissue culture flask with 1.0 mL solution of accutase and PBS solution. The cell pellet was obtained by centrifugation at 1,000 rpm for 5 minutes. The density of the viable cells was counted by 0.4% of trypan blue exclusion in a haemocytometer. Cells were then plated in 96-well microtiter plate (Nunc), at a concentration of 1 × 10^4 cells/well and incubated in a CO2 incubator at 37°C to allow the cells to adhere. After 24 h, the cells were treated with six different concentrations, that is, 1, 10, 25, 50, 75, and 100 μg/mL of each tested agent in three replicates. The plates were incubated for 72 h at 37°C in a 5% CO2 incubator. The untreated cells were regarded as a negative control, whilst cells incubated only with DMSO (0.5%, v/v) were used as a vehicle control. No effect due to the DMSO was observed. Doxorubicin was used as the positive control. After 72 h, the old medium was substituted with fresh medium containing 50 μg/mL neutral red. The 96-well plates were placed into incubator for 3 h. This is to allow the uptake of the vital dye into the lysosomes of viable and undamaged cells. Then, the media was discarded and cells were washed with 200 μL of neutral red washing solution. The dye was eluted from the cells by adding neutral red resorb solution (200 μL). The plate was further incubated for 30 min with rapid agitation on a microtiter plate shaker. The optical density (OD) of the eluted dye was read at 540 nm using a microplate reader. The experiments were conducted in triplicates. The percentage of inhibition of each of the test samples was calculated according to the following formula using the OD values obtained: percentage of inhibition (%) = (OD control − OD sample)/OD control × 100%. The average of three replicates was then obtained. Cytotoxicity of each test agent is expressed as IC50 value. The IC50 value is the concentration of test agents that cause 50% inhibition or cell death, averaged from the three experiments. The IC50 for each extract was extrapolated from the graphs of the percentage inhibition versus concentration of test agents.

[4] = tested on: hormone-dependent breast cancer cell line (MCF-7); assay: cells; assay type: cell-based; conditions: Homo sapiens, MCF7; isolated compounds, 72 h, neutral red, mean ± SD of three replicates; read-out: IC50 (μg/mL) MCF-7
Procedure: as §2, §3

[5] = tested on: HCT-116 cells; assay: Morphological changes by phase contrast inverted microscope, HCT-116; assay type: cell-based, human; conditions: HCT-116, 48 h, 12.5-50 μg/mL, phase contrast 200x
Procedure: as §1

`C=C1CCC(C(C)C)=CC2C1CC[C@@]2(C)O` (stereo partly drawn) [Alismol, alismol] was tested, and the “morphological changes (in words)” value [1] was “typical apoptotic features”, the “Percentage of apoptotic cells (%)” value ([2]; 12.5 μg/mL) was 8.83 ± 0.58^a % and the “Percentage of necrotic cells (%)” value ([2]; 12.5 μg/mL) was 5.83 ± 1.50^a %. For the same molecule, the “Percentage of apoptotic cells (%)” value ([2]; 25 μg/mL) was 53.67 ± 1.76^d %, the “Percentage of necrotic cells (%)” value ([2]; 25 μg/mL) was 14.00 ± 3.50^b % and the “Percentage of apoptotic cells (%)” value ([2]; 25 μg/mL, listed as alismol) was 53.7 ± 1.8%. For the same molecule, the “Percentage of apoptotic cells (%)” value ([2]; 40 μg/mL) was 41.67 ± 0.76^c %, the “Percentage of necrotic cells (%)” value ([2]; 40 μg/mL) was 45.33 ± 0.60^c % and the “Percentage of apoptotic cells (%)” value ([2]; 50 μg/mL) was 32.67 ± 1.04^b %. The “Percentage of necrotic cells (%)” value ([2]; 50 μg/mL) was 60.33 ± 1.00^d %, the “Percentage of necrotic cells (%)” value ([2]; 50 μg/mL, listed as alismol) was 60.3 ± 1.0% and the IC50 [3] was 8.7 ± 1.1 µg/mL (≈ 39.5 µM). The IC50 [4] was 10 ± 0.7 µg/mL (≈ 45.4 µM) and the “morphological changes (in words)” value [5] was “typical apoptotic features”.
With `C=CC1(C)Cc2occ(C)c2C(=O)C1C(=C)C` (stereo not drawn) [Curzerenone, curzerenone] the “morphological changes (in words)” value [1] was “typical apoptotic features”, the “Percentage of apoptotic cells (%)” value ([2]; 12.5 μg/mL) was 4.82 ± 0.59^a % and the “Percentage of necrotic cells (%)” value ([2]; 12.5 μg/mL) was 3.50 ± 1.30^a %. The “Percentage of apoptotic cells (%)” value ([2]; 25 μg/mL) was 7.89 ± 1.77^b %, the “Percentage of necrotic cells (%)” value ([2]; 25 μg/mL) was 5.57 ± 1.10^b % and the “Percentage of apoptotic cells (%)” value ([2]; 40 μg/mL) was 39.67 ± 1.89^c %. For the same molecule, the “Percentage of necrotic cells (%)” value ([2]; 40 μg/mL) was 11.83 ± 2.10^c %, the “Percentage of apoptotic cells (%)” value ([2]; 50 μg/mL) was 54.67 ± 1.76^d % and the “Percentage of necrotic cells (%)” value ([2]; 50 μg/mL) was 16.33 ± 1.0^d %. The “Percentage of apoptotic cells (%)” value ([2]; 50 μg/mL, listed as curzerenone) was 54.7 ± 1.8%, the IC50 [3] was 8.9 ± 0.7 µg/mL (≈ 38.6 µM) and the IC50 [4] was 40 ± 0.5 µg/mL (≈ 174 µM). For the same molecule, the “morphological changes (in words)” value [5] was “typical apoptotic features”.
